Where “and” joins values, the source holds several entries; their conditions need not be identical. Equal entries are not always repeated. Where two headings read alike, the source gives them in different places. Marks after values point to notes of the source that are not given here.
Experiments:
[1] = molecular target: T1, Sphingobacterium multivorum SPT (Sphingobacterium multivorum, UniProt A7BFV6); test: Chiral HPLC of 7-methoxycoumarin-labeled KDS enantiomers after SPT reaction or incubation; assay type: biochemical; conditions: 1.3 mM KDS incubated with 230 μM SPT, 37 °C, 120 min
T1 construct: harboring the plasmid expressing the full-length SPT; made in house; host or cells: Escherichia coli BL21 (DE3) pLysS
T1 sequence (A7BFV6 whole entry): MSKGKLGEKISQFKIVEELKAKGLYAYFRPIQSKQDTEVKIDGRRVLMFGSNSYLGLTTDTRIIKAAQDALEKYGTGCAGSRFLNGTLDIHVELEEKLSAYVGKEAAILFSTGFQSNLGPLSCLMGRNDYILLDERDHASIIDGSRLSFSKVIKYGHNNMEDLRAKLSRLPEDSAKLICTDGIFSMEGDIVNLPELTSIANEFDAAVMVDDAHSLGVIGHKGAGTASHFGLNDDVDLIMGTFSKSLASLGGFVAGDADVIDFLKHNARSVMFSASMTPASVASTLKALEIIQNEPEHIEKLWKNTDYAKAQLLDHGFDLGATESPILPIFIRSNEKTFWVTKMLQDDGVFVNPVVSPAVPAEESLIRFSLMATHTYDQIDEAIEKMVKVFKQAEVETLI
Excerpt: KDS has a chiral center at the C2 position to which hydrogen, hydroxymethyl, amino, and acyl groups are attached. In the present study, it was necessary to know which optical isomer, (2S)- or (2R)-KDS, was formed from D-serine. In order to detect KDS enantiomers, we developed a new method in which each enantiomer of 7-methoxycoumarin-labeled KDS was separated and quantified by chiral HPLC (Fig. 2A). First, the standard compounds (2S)-2-amino-1-hydroxyoctadecan-3-one (L-serine–type (2S)-KDS) and (2R)-2-amino-1-hydroxyoctadecan-3-one (D-serine–type (2R)-KDS) were chemically synthesized (Supporting information). Next, the conditions for fluorescence labeling and HPLC were examined using these authentic compounds; the successful separation of KDS enantiomers was achieved by 7-methoxycoumarin labeling of the amino group of KDS (Fig. 2B, lines 1–3). The labeled (2S)-KDS and (2R)-KDS were eluted at 7.7 and 8.9 min, respectively, with the calculated separation factor of 1.3 (Fig. 2B, line 3). When the SPT reaction product derived from L-serine was analyzed, two fluorescence peaks were detected (Fig. 2B, line 4). […] Similarly, for the SPT reaction product derived from D-serine, two fluorescence peaks corresponding to 7-methoxycoumarin-labeled (2S)-KDS and 7-methoxycoumarin-labeled (2R)-KDS were detected (Fig. 2B, line 5). […]

[2] = molecular target: T1, Sphingobacterium multivorum SPT; test: Spectroscopic titration of SPT with amino acids (422 nm absorption, external aldimine formation); assay type: binding; conditions: 10 μM SPT
Procedure: (§1) Dependency of the reaction rates on amino acid concentrations under the condition of 1 mM palmitoyl-CoA was examined (Table 1). Each LCB product was quantified by the fluorescence intensity based on the standard curve obtained by using the corresponding authentic compound ([23]). The value of apparent catalytic efficiency ( kcatapp/Kmapp ) for D-serine was 0. 0013 min^–1 mM^–1 and was much smaller than that for L-serine ( kcatapp/Kmapp = 3.6 min^–1 mM^–1). Therefore, the KDS production by SPT from D-serine is considered to be negligible at the physiological concentration of D-serine. Next, binding of D-serine to the S. multivorum SPT was examined by spectroscopic titration. When SPT was incubated with D-serine, spectral changes corresponding to the external aldimine formation between PLP and the amino acid were observed (Supporting information).
Figure S1. Spectroscopic titration of the S. multivorum SPT with D-serine or α-methyl-D-serine. (A) Absorption spectra of SPT (10 μM) in the presence of 0, 2.0, 5.0, 9.9, 15, 20, 29, 38, and 48 mM D-serine (lines 1–9, respectively).
(B) Absorption spectra of SPT (10 μM) in the presence of 0, 3.0, 6.0, 9.9, 20, 34, 52, 74, and 99 mM α-methyl-D-serine (lines 1–9, respectively).
Determination of dissociation constants (Kd) for amino acids.
The titration assay was carried out as previously reported (1). The changes of the 422 nm-absorption intensities of SPT upon addition of amino acids were plotted against the final concentrations of the amino acids, and the Kd values were calculated by fitting to a hyperbolic saturation curve using Igor Pro 6.37. software (Wave Matrix Inc., Lake Oswego, Oregon, […]
United States). […]

[3] = molecular target: T1, Sphingobacterium multivorum SPT; test: TLC/autoradiography analysis of KDS formation; assay type: biochemical; conditions: 500 mM serine, 1 mM [1-14C]-palmitoyl-CoA, 100 μM SPT, 37 °C, 60 min
Excerpt: We previously reported that the KDS formation from D-serine was not detected under physiological assay conditions using S. paucimobilis SPT ([15], [47]). […] Each reaction product was ninhydrin-positive with the specific color and the Rf value, which corresponded to those of a commercial authentic KDS on the TLC plate (Fig. 1A, lanes 2 and 4). […] Such radioactive reaction products were not detected under the reaction condition lacking the amino acid substrate or SPT. The structure of the reaction product derived from each serine enantiomer was confirmed by HPLC/triple quadrupole/linear ion trap mass spectrometry using a commercially available authentic KDS as the standard (Fig. 1C).
Figure 1 Formation of KDS from L-serine and D-serine by the Sphingobacterium multivorum SPT.A, image of the TLC analysis of KDS visualized with ninhydrin reagent: lane 1, extract of the reaction mixture without the amino acid substrate; lane 2, extract of the reaction mixture with L-serine; lane 3, commercial authentic KDS (L-serine–derived, (2S)-KDS); lane 4, extract of the reaction mixture with D-serine; lane 5, extract of the reaction mixture without SPT. The complete reaction mixture contained 500 mM L-/D-serine, 1 mM palmitoyl-CoA, and 100 μM SPT and was incubated at 37 °C for 60 min. […] Radioactivity was incorporated to the reaction product from the substrate [1-^14C]-palmitoyl-CoA. […]

[4] = molecular target: T1, Sphingobacterium multivorum SPT; test: Serine racemase assay of SPT (fluorescence derivatization, reverse-phase HPLC); assay type: biochemical; conditions: 1 mM D-serine, 47 μM SPT, 37 °C, no palmitoyl-CoA
Procedure: In order to verify the possibility of conversion between D-serine and L-serine, the serine racemase activity of SPT in the absence of palmitoyl-CoA was examined by the combination of fluorescence labeling and reverse-phase HPLC (Fig. 4).
One millimolar L-serine or D-serine was incubated with or without 47 μM SPT at 37 °C for 24 h. […] The reaction mixture containing 1 mM serine and 47 μM SPT was incubated at 37 °C for 1 to 24 h. […] The reaction mixture contained 1 mM serine and either or both of 1 mM PLP and 47 μM SPT.
Serine racemase assay of SPT was performed by determining the amount of each antipodal serine derivative formed from D-serine or L-serine as previously reported with some modifications ([48]). After D/L-serine was derivatized to fluorescent diastereomer, the enantioselective detection of serine was performed on an HPLC system with a Multi lambda Fluorescence Detector (Waters Corporation). The reaction was carried out at 37 °C for 1 to 24 h in a reaction mixture (100 μl) containing 100 mM Tris/HCl buffer (pH 7.5), 1 mM D/L-serine, and 47 μM SPT with or without 1 mM PLP. […] For fluorescence detection, the excitation and emission wavelengths were 350 nm and 450 nm, respectively. […]

[5] = molecular target: T1, Sphingobacterium multivorum SPT; test: Steady-state kinetics of LCB (KDS) formation by SPT; assay type: biochemical; conditions: 1 mM palmitoyl-CoA
Procedure: as §1
The assay was performed as previously reported ([23]). For qualitative analysis, 500 mM of L-serine or D-serine was incubated with 1 mM palmitoyl-CoA and 100 μM SPT in 100 μl of 100 mM potassium phosphate, pH 7.5, at 37 °C for 60 min. [1-^14C] palmitoyl-CoA (20 kBq/μmol) was supplemented into the above reaction mixture as the tracer. The reactions were terminated by addition of the equal volume of 2 N ammonia. Lipids were extracted by successive addition and mixing of 750 μl of chloroform/methanol (1:2, v/v), 250 μl of chloroform, and 250 μl of 1% KCl. Phases were separated by centrifugation, and the organic phase was recovered. […] For the quantitative analysis, the UV-fluorescence intensities of the reaction products on TLC plates were visualized by a Fusion chemiluminescence imaging system using a UV-light box and analyzed by a FUSION Capt software (Vilber Lourmat).
Steady-state kinetic parameters were determined by varying the concentrations of D-serine in the presence of 1 mM palmitoyl-CoA in 100 μl of 100 mM potassium phosphate, pH 7.5, at 37 °C. […] The reaction termination, lipid extraction, TLC analysis, and quantification of the reaction products on TLC plates were described above. […]

[6] = molecular target: T1, Sphingobacterium multivorum SPT; set-up: method as in PMID 23957439; conditions: 1 mM palmitoyl-CoA; cited from earlier work
[7] = molecular target: T1, Sphingobacterium multivorum SPT; set-up: method as in PMID 23957439; conditions: spectroscopic titration; cited from earlier work

## CCCCCCCCCCCCCCCC(=O)[C@H](N)CO [(2R)-KDS, (2R)-2-amino-1-hydroxyoctadecan-3-one]
[1]
  SPT-dependent racemization of KDS enantiomer: the racemized product was formed in each case, albeit in a smaller amount

## CCCCCCCCCCCCCCCC(=O)[C@@H](N)CO [(2S)-KDS, (2S)-2-amino-1-hydroxyoctadecan-3-one]
[1]
  SPT-dependent racemization of KDS enantiomer: the racemized product was formed in each case, albeit in a smaller amount

## N[C@H](CCO)C(=O)O [D-homoserine]
[2]
  Kd: 90 ± 8 mM

## N[C@H](CO)C(=O)O [D-serine]
[2]
  Kd: 11 ± 1.8 mM
[3]
  formation of KDS reaction product: the reaction product was formed
[4]
  formation rate of L-serine from D-serine (racemization): 0.0020 min^–1
[5]
  kcatapp/Kmapp (apparent catalytic efficiency): 0.0013 min^–1 mM^–1
[5]; 10 μM SPT, pH 7.5, 37 °C
  Kmapp: 237.7 ± 44.3 mM
  kcatapp: 0.31 ± 0.02 min^–1

## C[C@H](N)C(=O)O [L-alanine]
[6]
  Kmapp: 110 ± 9.0 ^b mM
  kcatapp: 0.42 ± 0.011 ^b min^–1
  kcatapp/Kmapp (apparent catalytic efficiency): 0.0037 ^b min^–1 mM^–1

## N[C@@H](CCO)C(=O)O [L-homoserine]
[7]
  Kd: 3.6 ± 0.2 mM
[6]
  Kmapp: 82 ± 14 ^b mM
  kcatapp: 4.5 ± 0.28 ^b min^–1
  kcatapp/Kmapp (apparent catalytic efficiency): 0.055 ^b min^–1 mM^–1

## N[C@@H](CO)C(=O)O [L-serine]
[3]
  formation of KDS reaction product: the reaction product was formed
[6]
  Kmapp: 3.6 ± 0.87 ^b mM
  kcatapp: 13 ± 1.0 ^b min^–1
  kcatapp/Kmapp (apparent catalytic efficiency): 3.6 min^–1 mM^–1 and 3.6 ^b min^–1 mM^–1

## NCC(=O)O [glycine]
[7]
  Kd: 71 ± 5.5 mM
[6]
  Kmapp: 77 ± 8.1 ^b mM
  kcatapp: 0.008 ± 0.002 ^b min^–1
  kcatapp/Kmapp (apparent catalytic efficiency): 0.0001 ^b min^–1 mM^–1

## C[C@@](N)(CO)C(=O)O [α-methyl-D-serine, reference compound]
[2]
  Kd: 27 ± 2.5 mM

## C[C@](N)(CO)C(=O)O [α-methyl-L-serine, reference compound]
[2]
  Kd: 8.3 ± 1.8 mM

Source: article PMC10912632, “Racemization of the substrate and product by serine palmitoyltransferase from Sphingobacterium multivorum yields two enantiomers of the product from D-serine” (The Journal of Biological Chemistry, 2024)
